The source of these data is article PMC5799307, “Creation of a long-acting nanoformulated dolutegravir” (Nature Communications, 2018).

One data set concerns HIV-1. Set-up: method as in PMID 21115794. To be noted: cited from earlier work.
The nature of data set [1]: Ex vivo cleavage kinetics of MDTG in mouse whole blood. Type of data set: in vitro ADME. To be noted: after 60 min. The procedure: A lipophilic and hydrophobic modified DTG prodrug (called MDTG) was synthesized through myristoylation of the parent drug hydroxyl group. Initially, DTG was dried by co-evaporation from anhydrous pyridine then resuspended in anhydrous DMF and cooled to 0 °C under argon. 2-equivalents DIEA were used to deprotonate the 7-hydroxyl group of DTG, which was then immediately reacted with 2 equivalents myristoyl chloride for 24 h. The resultant product was purified by silica gel column chromatography using an initial mobile phase of 4:1 ethyl acetate: hexanes for 12 fractions, then 9:1 ethyl acetate: hexanes for the remainder. Once purified, fractions containing the UV active prodrug were dried and precipitated from diethyl ether. The precipitate was collected by centrifugation at 3500 r.p.m. for 15 min and dried under vacuum, while the supernatant was discarded. MDTG was synthesized at a final drug yield of 82.8%. Proton nuclear magnetic resonance (^1H NMR), carbon nuclear magnetic resonance (^13C NMR), and Fourier-transform infrared (FTIR) spectroscopy, positive electrospray ionization mass spectroscopy (ESI-MS), and powder X-ray diffraction (XRD) were used to characterize the structure of MDTG. […] ESI-MS specifics (m/z): calculated for C34H45F2N3O6, 629.33 (100%), 630.33 (36.8%), 631.33 (3.9%); found, 630.30. […] The aqueous solubility of DTG and MDTG was evaluated by adding excess drug to water at room temperature then mixing it overnight. […] Solubilized drug in the supernatant was extracted in methanol and measured using a Waters ACQUITY ultra performance liquid chromatography (UPLC) H-Class System with TUV detector and Empower 3 software (Milford, MA). For DTG and MDTG quantitation, drug extracts were separated on a Phenomenex Kinetex 5 μm C18 column (150 × 4.6 mm) (Torrance, CA) using either 65% 50 mM KH2PO4, pH 3.2/35% ACN (DTG) or 90% ACN/10% water (MDTG) with a flow rate of 1.0 mL/min and detected at 254 nm and 230 nm, respectively. Drug content was quantitated by comparison of peak area to those of known standards (0.05–50 µg/mL). Ex vivo cleavage kinetics of MDTG was assessed in mouse whole blood. […]

Data set [2] can be described thus: Aqueous solubility (excess drug in water, room temperature, overnight, UPLC). Type of data set: physicochemical. The protocol: A lipophilic and hydrophobic modified DTG prodrug (called MDTG) was synthesized through myristoylation of the parent drug hydroxyl group. Initially, DTG was dried by co-evaporation from anhydrous pyridine then resuspended in anhydrous DMF and cooled to 0 °C under argon. 2-equivalents DIEA were used to deprotonate the 7-hydroxyl group of DTG, which was then immediately reacted with 2 equivalents myristoyl chloride for 24 h. The resultant product was purified by silica gel column chromatography using an initial mobile phase of 4:1 ethyl acetate: hexanes for 12 fractions, then 9:1 ethyl acetate: hexanes for the remainder. […] ESI-MS specifics (m/z): calculated for C34H45F2N3O6, 629.33 (100%), 630.33 (36.8%), 631.33 (3.9%); found, 630.30. […] The aqueous solubility of DTG and MDTG was evaluated by adding excess drug to water at room temperature then mixing it overnight. […] Solubilized drug in the supernatant was extracted in methanol and measured using a Waters ACQUITY ultra performance liquid chromatography (UPLC) H-Class System with TUV detector and Empower 3 software (Milford, MA). For DTG and MDTG quantitation, drug extracts were separated on a Phenomenex Kinetex 5 μm C18 column (150 × 4.6 mm) (Torrance, CA) using either 65% 50 mM KH2PO4, pH 3.2/35% ACN (DTG) or 90% ACN/10% water (MDTG) with a flow rate of 1.0 mL/min and detected at 254 nm and 230 nm, respectively. […]

In the case of `C[C@@H]1CCO[C@H]2Cn3cc(C(=O)NCc4ccc(F)cc4F)c(=O)c(O)c3C(=O)N12` [DTG, dolutegravir], the “protein-adjusted inhibitory concentration90 (PA-IC90)” value with HIV-1 is 0.064 µg/mL.
For `CCCCCCCCCCCCCC(=O)Oc1c2n(cc(C(=O)NCc3ccc(F)cc3F)c1=O)C[C@@H]1OCC[C@@H](C)N1C2=O` [MDTG], the MDTG cleaved in data set [1] (after acetonitrile (ACN) addition) stood at 21.9%; in data set [1] (whole blood, room temperature) it was 79.9%. Besides, the MDTG hydrolyzed amounted to 88.7% in data set [1] (blood diluted ten-fold) and 15.2% in data set [1] (blood spiked with an esterase inhibitor). Also, the “decrease in aqueous solubility compared to DTG” value in data set [2] came out at 8.7 fold.
